Results on eleven compounds are retold here after ChEMBL document CHEMBL1201862, “PubChem BioAssay data set” (2004).

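Dose response: 5 concentrations. Exposure: 48 h. Format: 96-well plates. Endpoint: linear interpolation; highest concentration if not reached. At the GI50, growth is halved.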 The source made the active and inactive calls. Rule as the data show it: active = GI50 up to about 1.1 µM and inactive = higher. A value given as a limit tells only on which side of the number the result lay.

Assay in all cases: NCI anticancer screen, dose series, 48 h
Assay [1] relates to HCT-15.
For assay [2], the system named is HOP-62.
The test system of assay [3] is HOP-92.
In assay [4] the test system is Hs-578T.
The subject of assay [5] is IGROV-1.
Assay [6] concerns KM12.
In assay [7] the test system is LOX IMVI.
Assay [8] deals with MDA-MB-435.
Assay [9] has as its system OVCAR-5.
The test system of assay [10] is RXF 393.
In assay [11] the test system is SF-295.
The subject of assay [12] is SF-539.
For assay [13], the system named is SK-MEL-28.
For assay [14], the system named is SK-OV-3.
The subject of assay [15] is SN12C.
Assay [16] has as its system SNB-75.
In assay [17] the test system is T47D.
The subject of assay [18] is UO-31.

In the case of `CCCCCC(/C=C/[C@@H]1CC(=O)C[C@H]1O[Si](C)(C)C(C)(C)C)OCOCCOC` (stereo partly drawn), the GI50 was 3.86 µM in assay [1]; 15.5 µM (inactive) in [2]; 1.97 µM (inactive) in assay [3]; 2.9 µM (inactive) in [4]; 3.24 µM (inactive) in assay [5]; 3 µM (inactive) in assay [6]. Also, the GI50 in assay [7] is 2.7 µM (inactive); in assay [8], 2.02 µM (inactive); in assay [9], 10 µM (inactive); in [10] it was 2.24 µM (inactive); in assay [11], 11 µM (inactive); in assay [12] it was 2.32 µM (inactive). Further, the GI50 is 3.08 µM (inactive) in assay [13]; 17 µM (inactive) in [14]; 8.43 µM (inactive) in assay [15]; 2.19 µM (inactive) in assay [16]; 11.1 µM (inactive) in assay [17]; 2.42 µM (inactive) in [18].

In the case of `O=C(OCCN=C1c2ccccc2CCc2ccccc21)c1ccccc1`, the GI50 is greater than 100 µM in [1]; > 100 µM (inactive) in [2]; > 100 µM (inactive) in [3]; > 100 µM (inactive) in [4]; > 100 µM (inactive) in assay [5]; > 100 µM (inactive) in [6]. Also, the GI50 in assay [7], in assay [8], in assay [9], in assay [10], in assay [11] and in assay [12] was > 100 µM (inactive) each time. In addition, the GI50 in assay [13], in assay [14], in [15], in assay [16], in [17] and in [18] was > 100 µM (inactive) each time.

For `CCOC(=O)C(O)(NC(C)=O)C(F)(F)F` (stereo not drawn), the GI50 in assay [1] is greater than 100 µM; in assay [2], > 100 µM (inactive); in assay [3], 26.2 µM (inactive); in assay [4] it was > 100 µM (inactive); in assay [5] it was > 100 µM (inactive); in assay [6], > 100 µM (inactive). Besides, the GI50 in assay [7], in assay [8], in [9], in [10], in assay [11] and in assay [12] was > 100 µM (inactive) in each case. For the same compound, the GI50 in assay [13], in assay [14], in [15], in assay [16], in assay [17] and in assay [18] was > 100 µM (inactive) throughout.

For the compound `CN(C)/C=C/c1nnnn1-c1ccc(I)cc1`, the GI50 is 13.5 µM in assay [1]; 31.8 µM (inactive) in assay [2]; 14.2 µM (inactive) in assay [3]; 13.6 µM (inactive) in assay [4]; 15.6 µM (inactive) in assay [5]; 18.5 µM (inactive) in assay [6]. Further, the GI50 was 16.6 µM (inactive) in [7]; 20.5 µM (inactive) in assay [8]; 23.7 µM (inactive) in [9]; 28 µM (inactive) in [10]; 25.8 µM (inactive) in assay [11]; 19.5 µM (inactive) in assay [12]. Also, the GI50 in assay [13] was 26.7 µM (inactive); in assay [14], 18.1 µM (inactive); in assay [15], 14.9 µM (inactive); in assay [16], 11.1 µM (inactive); in [17] it was 9.44 µM (inactive); in [18], 17.6 µM (inactive).

As to `NC(CO)C(=O)NCC(=O)O` (stereo not drawn), the GI50 in assay [1] is greater than 100 µM; in [2], > 100 µM (inactive); in assay [3], > 100 µM (inactive); in assay [4] it was > 100 µM (inactive); in assay [5] it was > 100 µM (inactive); in assay [6] it was > 100 µM (inactive). In addition, the GI50 in assay [7], in assay [8], in [9], in [10], in [11] and in assay [12] was > 100 µM (inactive) throughout. For the same compound, the GI50 in [13], in assay [14], in [15], in [16], in assay [17] and in assay [18] was > 100 µM (inactive) in each case.

`COc1ccc(C[C@@H]2OC3(C=CC(=O)CC3Sc3ccccc3)O[C@H]2Cc2ccc(OC)cc2)cc1` (stereo partly drawn): the GI50 is 0.993 µM in [1]; 0.432 µM (active) in assay [2]; 1.14 µM (inactive) in [3]; 1.41 µM (inactive) in assay [4]; 0.904 µM (active) in [5]; 2.11 µM (inactive) in [6]. Moreover, the GI50 in assay [7] was 0.458 µM (active); in assay [8], 1.9 µM (inactive); in [9] it was 1.14 µM (inactive); in assay [10], 0.107 µM (active); in assay [11], 1.91 µM (inactive); in assay [12], 1.64 µM (inactive). In addition, the GI50 in [13] was 1.86 µM (inactive); in assay [14], 3.15 µM (inactive); in assay [15] it was 1.61 µM (inactive); in assay [16] it was 1.69 µM (inactive); in [17], 0.813 µM (active); in [18], 1.09 µM (active).

With `Cc1ccccc1CN1CC2=C(CCN(Cc3ccccc3)C2=O)N2CCN=C12`, the GI50 in assay [1] was 5.04 µM; in assay [2] it was 9.16 µM (inactive); in [3], 21.6 µM (inactive); in assay [4], 14.4 µM (inactive); in assay [5], > 100 µM (inactive); in [6], 46.2 µM (inactive). The GI50 is 3.49 µM (inactive) in assay [7]; 4.74 µM (inactive) in assay [8]; 8.41 µM (inactive) in assay [9]; 54 µM (inactive) in [10]; 3.21 µM (inactive) in assay [11]; 52.4 µM (inactive) in [12]. Further, the GI50 in [13] is 29.2 µM (inactive); in assay [14], 7.78 µM (inactive); in assay [15] it was 5.6 µM (inactive); in assay [16] it was 6.08 µM (inactive); in assay [17], 4.8 µM (inactive); in [18], 6.81 µM (inactive).

Regarding `Cc1nc2cc(/N=N/c3c(C)noc3C)ccc2[nH]1`, the GI50 in [1] was 27.2 µM; in [2] it was 27.1 µM (inactive); in [3] it was 14.9 µM (inactive); in [4], 16.5 µM (inactive); in assay [5] it was 12.6 µM (inactive); in [6], 49.8 µM (inactive). The GI50 is 16.6 µM (inactive) in assay [7]; 21.3 µM (inactive) in assay [8]; 28 µM (inactive) in assay [9]; 16.3 µM (inactive) in assay [10]; 23.4 µM (inactive) in assay [11]; 17.6 µM (inactive) in assay [12]. In addition, the GI50 is 17.6 µM (inactive) in [13]; 18.9 µM (inactive) in assay [14]; 33.6 µM (inactive) in [15]; 5.28 µM (inactive) in assay [16]; 1.67 µM (inactive) in assay [17]; 13.9 µM (inactive) in assay [18].

On to `CC[C@@]12CCC(=S)N(CCSc3ccccc3)[C@@H]1c1c(n(S(=O)(=O)c3ccc(OC)cc3)c3ccccc13)CC2`, for which the GI50 in [1] was greater than 100 µM; in [2], > 100 µM (inactive); in assay [3] it was 73.6 µM (inactive); in assay [4], > 100 µM (inactive); in assay [5], > 100 µM (inactive); in [6], > 100 µM (inactive). For the same compound, the GI50 in assay [7] was > 100 µM (inactive); in [8], > 100 µM (inactive); in [9], > 100 µM (inactive); in assay [10], 24.1 µM (inactive); in assay [11] it was > 100 µM (inactive); in assay [12], 88.1 µM (inactive). For the same compound, the GI50 in [13] was > 100 µM (inactive); in assay [14], > 100 µM (inactive); in assay [15] it was > 100 µM (inactive); in assay [16], 46.3 µM (inactive); in [17] it was > 100 µM (inactive); in assay [18] it was > 100 µM (inactive).

Turning to `O=[N+]([O-])C(=C/c1cccc2ccccc12)/C(=C\c1cccc2ccccc12)[N+](=O)[O-]`, the GI50 in assay [1] was 1.9 µM; in assay [2], 2.74 µM (inactive); in assay [3], 1.92 µM (inactive); in assay [4], 3.01 µM (inactive); in [5], 1.79 µM (inactive); in assay [6], 4.23 µM (inactive). In addition, the GI50 in [7] was 1.61 µM (inactive); in assay [8] it was 2.28 µM (inactive); in assay [9], 3.66 µM (inactive); in assay [10], 1.99 µM (inactive); in assay [11], 2.58 µM (inactive); in assay [12] it was 2.21 µM (inactive). Further, the GI50 in assay [13] is 1.83 µM (inactive); in [14] it was 6.08 µM (inactive); in assay [15], 2.34 µM (inactive); in assay [16], 6.95 µM (inactive); in assay [17], 3.07 µM (inactive); in assay [18] it was 1.85 µM (inactive).

As to `Clc1ccc(Cc2nc3cc(Cl)c(Cl)cc3n2CC2CCCN3CCCCC23)cc1` (stereo not drawn), the GI50 in [1] is 10.7 µM; in assay [2] it was 18.5 µM (inactive); in [3], 12.2 µM (inactive); in [4], 9.79 µM (inactive); in assay [5], 8.87 µM (inactive); in [6], 6.59 µM (inactive). Moreover, the GI50 in assay [7] is 5.6 µM (inactive); in assay [8] it was 13 µM (inactive); in assay [9] it was 12.8 µM (inactive); in assay [10] it was 13.8 µM (inactive); in [11] it was 13.4 µM (inactive); in assay [12], 10.4 µM (inactive). For the same compound, the GI50 in assay [13] is 6.93 µM (inactive); in [14], 16.9 µM (inactive); in [15], 12.3 µM (inactive); in assay [16] it was 7.76 µM (inactive); in [17] it was 18.1 µM (inactive); in assay [18], 0.285 µM (active).
